One molecule from publication PMC5384001 (Scientific Reports, 2017) can be followed below.

Several values for one entry are separate records, joined by “and”; a condition that tells them apart may be missing. Identical values can stand only once.

For the test, the target named is T1, GluD2-Lc(Y543Q) (Rattus norvegicus, UniProt Q63226, A654T/Y543Q).
T1 construct: the function of full-length receptors as well, we introduced them into the GluD2 lurcher mutant (GluD2-Lc); expressed in transfected cells; host or cells: Xenopus laevis oocytes injected with cRNA
T1 sequence (Q63226 24-1007 Y543Q/A654T): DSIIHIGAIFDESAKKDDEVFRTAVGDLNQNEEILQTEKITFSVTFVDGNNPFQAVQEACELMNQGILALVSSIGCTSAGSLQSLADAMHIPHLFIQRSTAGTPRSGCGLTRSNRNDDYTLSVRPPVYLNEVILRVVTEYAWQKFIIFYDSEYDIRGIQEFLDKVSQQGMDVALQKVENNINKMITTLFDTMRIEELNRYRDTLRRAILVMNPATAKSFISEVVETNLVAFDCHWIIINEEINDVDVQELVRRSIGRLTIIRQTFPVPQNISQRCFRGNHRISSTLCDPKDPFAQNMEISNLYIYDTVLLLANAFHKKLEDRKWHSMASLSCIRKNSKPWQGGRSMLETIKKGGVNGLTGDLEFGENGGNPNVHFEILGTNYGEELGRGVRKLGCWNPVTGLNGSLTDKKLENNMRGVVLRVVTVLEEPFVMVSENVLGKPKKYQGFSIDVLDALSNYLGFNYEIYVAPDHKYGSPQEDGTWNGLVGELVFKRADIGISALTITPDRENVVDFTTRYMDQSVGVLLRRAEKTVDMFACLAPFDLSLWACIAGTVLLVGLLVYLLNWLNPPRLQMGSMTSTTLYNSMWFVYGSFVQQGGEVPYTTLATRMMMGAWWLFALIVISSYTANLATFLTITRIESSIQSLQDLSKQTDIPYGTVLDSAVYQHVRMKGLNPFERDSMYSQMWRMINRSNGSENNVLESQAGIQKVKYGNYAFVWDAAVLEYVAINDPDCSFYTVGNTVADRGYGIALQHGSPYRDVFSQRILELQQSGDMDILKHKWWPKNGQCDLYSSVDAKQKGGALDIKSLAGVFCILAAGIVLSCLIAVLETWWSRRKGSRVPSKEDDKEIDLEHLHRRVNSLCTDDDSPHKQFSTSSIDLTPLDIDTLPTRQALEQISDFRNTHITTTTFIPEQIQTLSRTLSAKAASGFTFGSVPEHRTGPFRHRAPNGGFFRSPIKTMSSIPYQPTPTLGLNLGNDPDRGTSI
In words: Two-electrode voltage clamp in Xenopus oocytes, inhibition of spontaneous currents. It counts as cell-based. The note with it: fraction of spontaneous current inhibited by saturating D-serine. On the technique in general: In two-electrode clamp one electrode senses voltage and the other passes current.

Consider `N[C@H](CO)C(=O)O` [D-serine], for which the “D-serine efficacy Mean ± SEM” value was 36% and 36.2 ± 0.6%.
